Reference: patent US12180508B2, “Method of preparing in vitro-matured human intestinal organoids and use thereof” (KOREA RESEARCH INSTITUTE OF BIOSCIENCE AND BIOTECHNOLOGY, priority 2018, dated 2024)
Where two headings read alike, the source gives them in different places.

Tests used:
[1] = target: T1, CFTR (Homo sapiens, UniProt P13569); assay: Forskolin-induced organoid swelling assay (CFTR function); type: cell-based; conditions: mature organoids, forskolin 25 uM, 120 minutes
T1 construct: To examine the function of CFTR present in mature intestine epithelial cells in organoid models; endogenous in cells; host or cells: hPSC-derived human intestinal organoids (control, co-cultured with Jurkat T cells, or IL-2-treated)
T1 sequence (P13569 whole entry): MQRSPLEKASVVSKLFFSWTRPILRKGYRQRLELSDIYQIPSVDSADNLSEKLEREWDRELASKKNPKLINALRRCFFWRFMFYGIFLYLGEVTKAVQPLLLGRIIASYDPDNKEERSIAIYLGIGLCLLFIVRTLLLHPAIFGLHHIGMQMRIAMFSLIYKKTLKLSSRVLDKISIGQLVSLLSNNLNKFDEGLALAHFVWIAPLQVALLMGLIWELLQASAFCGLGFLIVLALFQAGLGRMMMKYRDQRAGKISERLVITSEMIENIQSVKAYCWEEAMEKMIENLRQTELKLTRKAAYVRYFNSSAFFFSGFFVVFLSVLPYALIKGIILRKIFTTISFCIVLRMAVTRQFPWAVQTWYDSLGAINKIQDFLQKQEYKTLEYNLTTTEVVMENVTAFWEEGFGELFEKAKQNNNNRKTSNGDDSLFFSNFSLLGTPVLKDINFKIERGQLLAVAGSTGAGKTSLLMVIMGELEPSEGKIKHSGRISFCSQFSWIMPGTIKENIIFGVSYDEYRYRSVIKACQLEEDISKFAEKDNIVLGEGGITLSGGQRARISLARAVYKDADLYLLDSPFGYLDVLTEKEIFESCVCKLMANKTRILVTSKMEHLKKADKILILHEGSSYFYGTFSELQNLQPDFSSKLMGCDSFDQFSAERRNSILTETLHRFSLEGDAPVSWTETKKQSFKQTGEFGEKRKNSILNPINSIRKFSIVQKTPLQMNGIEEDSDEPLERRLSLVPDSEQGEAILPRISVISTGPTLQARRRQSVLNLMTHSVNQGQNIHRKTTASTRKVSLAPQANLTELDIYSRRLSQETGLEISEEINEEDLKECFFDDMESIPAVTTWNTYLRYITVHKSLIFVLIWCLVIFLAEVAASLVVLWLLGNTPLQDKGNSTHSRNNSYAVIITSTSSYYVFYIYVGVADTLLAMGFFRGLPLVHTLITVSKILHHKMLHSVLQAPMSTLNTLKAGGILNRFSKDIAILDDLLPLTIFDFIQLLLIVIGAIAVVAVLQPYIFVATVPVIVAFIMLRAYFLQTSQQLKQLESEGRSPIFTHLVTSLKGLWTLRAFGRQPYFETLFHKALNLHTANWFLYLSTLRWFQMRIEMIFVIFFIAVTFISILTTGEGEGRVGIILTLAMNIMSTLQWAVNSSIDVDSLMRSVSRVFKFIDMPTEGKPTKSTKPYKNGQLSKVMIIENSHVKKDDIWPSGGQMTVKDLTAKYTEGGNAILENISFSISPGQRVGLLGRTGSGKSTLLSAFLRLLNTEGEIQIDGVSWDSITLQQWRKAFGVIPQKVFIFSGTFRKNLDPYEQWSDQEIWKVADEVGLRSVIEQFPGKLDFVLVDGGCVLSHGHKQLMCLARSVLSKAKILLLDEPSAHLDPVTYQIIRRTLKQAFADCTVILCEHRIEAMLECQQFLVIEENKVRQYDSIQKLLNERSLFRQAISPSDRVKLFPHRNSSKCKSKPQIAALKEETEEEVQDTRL
Procedure: To examine the function of CFTR present in mature intestine epithelial cells in organoid models, forskolin-induced organoid swelling assay was performed. Control and co-cultured or IL-2-treated hIOs (n=4) were treated with forskolin (25 uM, Merckmillopore), and then morphological observation was performed for 120 min at 20 min intervals through live imaging function of a microscope (IX83, Olympus). CFTR inhibitors (CFTRinh172, GlyH101) were co-treated, and morphological observation was performed for the same time. The size of organoids was calculated every hour, and mean values thereof were used to plot a graph.

[2] = system: p-STAT3 (Y705); assay: Phospho-STAT3 immunostaining of hIOs; type: cell-based, human; conditions: IL-2 treated Mat-hIOs; Stattic 1 μM or S3I-201 10 μM
Procedure: (§1) An immunofluorescence analysis was performed according to a known method (Kwak et al., Biochemical and biophysical research communications 457, 554-560, 2015). In detail, hPSCs and definitive endodermal cells were fixed in 4% paraformaldehyde (PFA) and then permeabilized with PBS containing 0.1% Triton X-100.
(§2) hIOs and tissues were fixed, cryo-protected in sucrose, and frozen using an optimal-cutting-temperature (OCT) compound (Sakura Finetek, Tokyo, Japan). Then, frozen sections were cut at a thickness of 10-20 μm using a cryostat microtome at −20° C. and permeabilized with PBS containing 0.1% Triton X-100 for immunofluorescence analysis.
(§3) In detail, after being blocked with 4% BSA, cells were incubated with primary antibodies at 4° C. overnight, and then incubated with secondary antibodies for 1 hr at room temperature. The used primary antibodies are as in Table 2. Paraffin sections were deparaffinized, subjected to antigen retrieval, and stained in a similar manner to OCT sections. DAPI was added to visualize nuclei. Slides were examined with an Axiovert 200M microscope (Carl Zeiss, Gottingen, Germany) or a fluorescence microscope (IX51, Olympus, Japan).

[3] = system: hPSC-derived hIOs; assay: Growth / size (surface area, budding) of hPSC-derived hIOs; type: cell-based, human; conditions: for stimulation of IL-2 on hIO growth in presence of inhibitor: with IL-2, S31-201 10 μM, Stattic 1 μM, Rapamycin 10 nM; for growth of hIOs with many crypt-like budding structures: treatment with STAT3 activators
Procedure: To estimate the size of hIOs, surface areas of horizontal cross-sections of hIOs were measured.

[4] = system: hIOs; assay: qPCR of intestinal maturation markers in hIOs; type: cell-based, human; conditions: colivelin treatment compared with control hIOs
Procedure: Total RNA was extracted from cells using an RNeasy Kit (Qiagen), and reverse-transcribed using a Superscript III cDNA synthesis kit (Invitrogen). qRT-PCR was performed by a method disclosed in a 7500 Fast Real-time PCR system (Applied Biosystems, Foster City, CA, USA) (Cho et al., Oncotarget 6, 23837-23844, 2015). All experiments were performed in triplicate, and CT value of each target gene was calculated using a software provided by the manufacturer. Nucleotide sequences of the used primers are as in Table 1.

[5] = system: hIOs; assay: Immunofluorescence staining of marker proteins in hIOs; type: cell-based, human; conditions: colivelin treatment
Procedure: as §1, §2, §3

[6] = target: P-glycoprotein (P-gp)/MDR1 (Homo sapiens, UniProt P08183); conditions: paclitaxel 10 μM basolateral, 2 hr incubation
Chain of P-glycoprotein (P-gp)/MDR1 (P08183 whole entry): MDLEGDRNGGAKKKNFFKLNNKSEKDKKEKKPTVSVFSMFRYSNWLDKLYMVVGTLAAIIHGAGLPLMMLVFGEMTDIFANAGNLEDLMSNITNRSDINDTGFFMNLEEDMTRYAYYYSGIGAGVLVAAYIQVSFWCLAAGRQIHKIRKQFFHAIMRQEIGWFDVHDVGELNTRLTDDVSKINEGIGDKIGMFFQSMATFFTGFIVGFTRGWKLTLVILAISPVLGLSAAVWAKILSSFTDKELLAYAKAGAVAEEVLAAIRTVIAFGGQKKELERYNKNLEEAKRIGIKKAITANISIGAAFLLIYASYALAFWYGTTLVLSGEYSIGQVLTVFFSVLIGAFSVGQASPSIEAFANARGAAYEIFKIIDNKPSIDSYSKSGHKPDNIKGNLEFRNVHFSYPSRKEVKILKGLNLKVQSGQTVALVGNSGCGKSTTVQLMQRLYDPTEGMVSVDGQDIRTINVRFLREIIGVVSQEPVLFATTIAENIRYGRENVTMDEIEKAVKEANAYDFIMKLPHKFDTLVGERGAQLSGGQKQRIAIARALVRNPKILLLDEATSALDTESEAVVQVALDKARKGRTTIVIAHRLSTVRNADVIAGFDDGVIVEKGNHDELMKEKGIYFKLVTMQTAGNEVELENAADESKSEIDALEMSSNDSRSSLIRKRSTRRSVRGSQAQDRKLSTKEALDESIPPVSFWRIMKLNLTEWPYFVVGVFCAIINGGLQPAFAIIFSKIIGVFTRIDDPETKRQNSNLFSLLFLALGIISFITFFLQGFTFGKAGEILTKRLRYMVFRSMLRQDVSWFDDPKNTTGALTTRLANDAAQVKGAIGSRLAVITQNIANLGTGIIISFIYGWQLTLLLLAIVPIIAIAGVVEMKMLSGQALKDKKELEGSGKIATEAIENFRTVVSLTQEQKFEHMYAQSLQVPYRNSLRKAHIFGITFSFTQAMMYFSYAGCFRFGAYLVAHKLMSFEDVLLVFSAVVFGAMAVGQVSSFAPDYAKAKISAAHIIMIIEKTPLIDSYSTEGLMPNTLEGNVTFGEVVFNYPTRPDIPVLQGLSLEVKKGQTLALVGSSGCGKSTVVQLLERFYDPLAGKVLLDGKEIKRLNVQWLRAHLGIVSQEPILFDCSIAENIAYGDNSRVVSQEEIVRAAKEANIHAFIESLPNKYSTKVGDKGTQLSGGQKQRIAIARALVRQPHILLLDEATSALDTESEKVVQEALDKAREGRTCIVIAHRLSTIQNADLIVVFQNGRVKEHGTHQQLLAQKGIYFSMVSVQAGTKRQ

In the case of `O=C(CNc1ccc2ccccc2c1)N/N=C/c1cc(Br)c(O)c(Br)c1O` [GlyH101], the “forskolin-induced swelling effect under CFTR inhibitor” value [1] is reported as “completely blocked”.

For `O=[N+]([O-])c1ccc2c(c1)S(=O)(=O)C=C2` [Stattic], the “phosphorylation of STAT3 at tyrosine 705 (Y705)” value [2] was “blocked” and the “stimulation of IL-2 on hIO growth in presence of inhibitor” value [3] was “prevented”.

In the case of `O=C(O)c1ccc(/C=C2\SC(=S)N(c3cccc(C(F)(F)F)c3)C2=O)cc1` [CFTRinh172], the “forskolin-induced swelling effect under CFTR inhibitor” value [1] is reported as “completely blocked”.

In the case of Colivelin, the “expression of intestinal maturation markers” value [4] is reported as “increased”, the “protein expression of Ki-67, OLFM4, MUC13 and KRT20” value [5] is reported as “increased” and the “growth of hIOs with many crypt-like budding structures” value [3] is reported as “promoted the growth”. The “size of hIO” value ([3]; various concentrations of colivelin) was “increased”.

For `CC(=O)O[C@H]1C(=O)[C@@]2(C)[C@H]([C@H](OC(=O)c3ccccc3)[C@]3(O)C[C@H](OC(=O)[C@H](O)[C@@H](NC(=O)c4ccccc4)c4ccccc4)C(C)=C1C3(C)C)[C@]1(OC(C)=O)CO[C@@H]1C[C@@H]2O` [paclitaxel], the “concentration of paclitaxel at the apical side, increase compared with control hIOs” value ([6]; IL-2-treated hIOs) was ~3 fold and the “concentration of paclitaxel at the apical side, increase compared with control hIOs” value ([6]; co-cultured hIOs) was “approximately 2.3 fold”.

For `Cc1ccc(S(=O)(=O)OCC(=O)Nc2ccc(C(=O)O)c(O)c2)cc1` [S3I-201], the “phosphorylation of STAT3 at tyrosine 705 (Y705)” value [2] was “blocked” and the “stimulation of IL-2 on hIO growth in presence of inhibitor” value [3] was “prevented”.

B1: IL-22: another known STAT3 activator, cytokine (protein, UniProt Q9GZX6 34-179, looked up)
Interleukin-22: APISSHCRLDKSNFQQPYITNRTFMLAKEASLADNNTDVRLIGEKLFHGVSMSERCYLMKQVLNFTLEEVLFPQSDRFQPYMQEVVPFLARLSNRLSTCHIEGDDLHIQRNVQKLKDTVKKLGESGEIKAIGELDLLFMSLRNACI
For B1, the “growth of hIOs with many crypt-like budding structures” value [3] was “promoted the growth”.
